Laboratory results: patent publication US20110280881A1, “NOVEL ANTI-HSP90 MONOCLONAL ANTIBODY” (RIKEN, priority 2010, published 2011)

Key:
DC2.4 cells = test: Influence of HSP90 inhibitors on expression of cell surface HSP90 (FACS with 6H8); type: cell-based; conditions: DC2.4, 37° C., 3 hours; OVA 1 mg/ml, radicicol 25 μM, novobiocin 400 μM
Description: DC2.4 cells were incubated in the presence of OVA (in FIG. 4A, i; 1 mg/ml), radicicola (in FIG. 4A, ii; 25 μM) or novobiocin (in FIG. 4A, iii; 400 μM) with 5% CO2 at 37° C. for 3 hours. Next, the cells were cooled on ice. To detect cell surface HSP90, the cells were stained with the 6H8 antibody and then analyzed by FACS.

[1] = system: DC2.4 cells and mouse GM-CSF-dependent BMDC; test: Influence of cytokines on expression of cell surface HSP90 (FACS with 6H8); type: cell-based; conditions: for expression of cell surface HSP90 after IFN treatment: DC2.4 and mouse GM-CSF-dependent BMDC, 24 hours, IFNα 500 U/ml, IFNβ 500 U/ml, IFNγ 50 ng/ml; for MFI of cell surface HSP90 after cytokine treatment versus negative control: BMDC, cytokines 100 ng/ml or 10 ng/ml
Description: In view of the possibility that cytokines are variation factors for the expression of cell surface HSP90, the influences of various cytokines on the expression of cell surface HSP90 were examined as described below.
The solid bars indicate the MFI for BMDC incubated in the presence of high concentrations of IFNs (as in FIG. 5B) or other cytokines (100 ng/ml); the grey bars indicate the MFI for BMDC incubated in the presence of low concentrations of IFNs (as in FIG. 5B) or other cytokines (10 ng/ml). The open bars indicate the MFI for BMDC incubated in the absence of the cytokines as negative controls.

OT-I CD8+ T cells [2] = test: In vitro cross-presentation assay with BMDC of normal and FcRγ KO mouse; type: cell-based; conditions: BMDC pulsed 3 hours, co-culture with OT-I CD8+ T cells, IFNγ ELISA
Description: (1) A bone marrow-derived dendritic cells (BMDCs) were established from a normal mouse and an FcRγ KO mouse (supplied by Professor Akira Shibuya, Immunology, Life System Medical Sciences, Majors of Medical Sciences, Graduate School of Comprehensive Human Sciences, University of Tsukuba) as described below. Bone marrow was recovered from a mouse femur and tibia, and 1×10^6 cells each were cultured in a 24-well plate using 2 ml/well of a complete RPMI containing 20 ng/ml recombinant mouse GM-CSF (R&D). Half of the medium was exchanged for a fresh medium on day 3 of cultivation, and the cells obtained on day 5 of cultivation were used as the BMDC. (2) BMDCs at Day 5 induced in a GM-CSF-dependent manner was stained with biotin-6H8 (2.5 μg/ml) and streptavidin-APC (0.2 μg/ml), and its fluorescence was determined using FACS Canto (BD).
(1) A pellet of 1×10^6 BMDC cells at Day 5 induced in a GM-CSF-dependent manner were prepared in a 15-ml tube. After adding 400 μl of an antigen (6H8-OVA, OVA, or OVA257-264) thereto, the tube was incubated with 5% CO2 at 37° C. for 3 hours. The cells were fixed in 0.5% para-formaldehyde, after which the cells were washed with 0.1 M glycine and then with RPMI; thereafter, the density was adjusted to 1×10^5 cells/ml. (2) Concurrently, OT-I CD8^+ T cells were purified and the density was adjusted to 1×10^5 cells/ml. […]

OT-I CD8+ T cells [3] = test: In vivo cross-presentation assay with free 6H8 antibody administered concurrently; parameters: species or system mouse; conditions: antigen 0.3 μg with free 6H8 antibody 30 μg, 72 hours
Description: (1) CFSE-labeled CD8^+ T cells of an OT-I/CD45.1 mouse were transferred to recipient mice from the tail vein, with 6H8-OVA [or 6H8 (F(ab′)2)—OVA, or OVA, or IgG2a-OVA] (0.3 μg) and the free 6H8 antibody [or 6H8 (F(ab′)2) or IgG2a] (30 μg) administered from the tail vein concurrently. (2) 72 hours later, the spleen was recovered from each mouse, and 2×10^6 splenocytes were stained with the PE-CD45.1 antibody in a 96-well round-bottomed plate for 30 minutes (while cooling on ice). (3) The CFSE intensity of CD45.1-positive cells (OT-I CD8^+ T cells) was determined using FACS Canto (BD).

Molecule | influence on expression level of surface HSP90 (DC2.4 cells) | MFI of cell surface HSP90 after cytokine treatment versus negative control [1] | further results
CO[C@@H]1[C@@H](OC(N)=O)[C@@H](O)[C@H](Oc2ccc3c(O)c(NC(=O)c4ccc(O)c(CC=C(C)C)c4)c(=O)oc3c2C)OC1(C)C [novobiocin] | no or almost no influence | – | –
C[C@@H]1C[C@H]2O[C@@H]2/C=C\C=C\C(=O)Cc2c(Cl)c(O)cc(O)c2C(=O)O1 [radicicol] | no or almost no influence | – | –
IFNα | – | – | expression of cell surface HSP90 after IFN treatment [1]: increased
IFNγ: cytokine | – | – | expression of cell surface HSP90 after IFN treatment [1]: increased
IL-5: cytokine | – | no significant difference from the negative control | –
IL-6: cytokine | – | no significant difference from the negative control | –
IL-15: cytokine | – | no significant difference from the negative control | –
IL-18: cytokine | – | no significant difference from the negative control | –
OVA257-264: major OVA epitope peptide (SIINFEKL) | – | – | cross-presentation potential of FcRγ KO mouse-derived dendritic cells compared with normal mouse-derived dendritic cells (OT-I CD8+ T cells [2]): equivalent
ovalbumin [ovalbumin used as a model antigen] | do not influence | – | enhancing effect by the 6H8 antibody on proliferation reaction of OT-I CD8+ T cells with this antigen (OT-I CD8+ T cells [3]): not noted; cross-presentation potential of FcRγ KO mouse-derived dendritic cells compared with normal mouse-derived dendritic cells (OT-I CD8+ T cells [2]): equivalent
